Source: patent US6673843B2 (Emory University, priority 1999, dated 2004)
Entries after “also recorded” stand apart in the source; their conditions may differ.

Legend:
[1] = tested on: bFGF-induced corneal neovascularization; experiment: Corneal neovascularization, bFGF pellet in mouse cornea; assay type: in vivo, C57BL6 male mice; details: for ANTI-ANGIOGENIC EFFECT Vessel Length / ANTI-ANGIOGENIC EFFECT Sector Size: pellet with 80 ng bFGF and 44 μg compound, mouse cornea; for ANTI-ANGIOGENIC EFFECT Sector Size: footnote: units of 1/12 of a circle (clock hours)
Description: C57BL6 male mice (5-6 weeks old) were anesthetized with methoxyflurane prior to implantation of pellets and with 0.5% proparacaine. A central, intrastromal linear keratotomy was performed with a surgical blade, and a lamellar micropocket was prepared according to the method of Kenyon, et al. (1996). The pellet was advanced to the end of the pocket. Erythromycin ointment was placed on the operated eye to prevent infection. Eyes were examined by slit lamp on days 3-6 after implantation under general anesthesia. Corneal angiogenesis was assayed through two measurements.
Vessel length is the length of the vessel from the corneal limbus as it grows toward the pellet containing bFGF.
Sector size is a measurement of neovascularized area of the cornea. The cornea is viewed as a circle that can be divided into twelve sectors of 30 degrees span each, analogous to the division of a clock face into twelve hours. Thus, neovascularization of a sector corresponding to one fourth of the cornea would be recorded as a sector size measurement of three. This system of measurement, recording sector sizes as “clock hours”, was established by Kenyon et al., Invest. Ophthalmol. 37:1625-1632 (1996).
Pellets were prepared according to a modification of the method of Kenyon, et al. Invest. Opthalmol. Vis. Sci. 37:1625-1632 (1996). […] Once the mixture was dry, the mesh was manually dissociated to yield 225 pellets. […] The approximate pore size was 0.4×0.4 mm. Both sides of the mesh were covered with a thin layer of hydron.
Neovascularization was assessed by slit lamp at 5 days after implantation, and the corneas were photographed.

[2] = tested on: quinone reductase [NAD(P)H:(quinone-acceptor) oxidoreductase, EC1.6.99.2] in murine Hepac1c7 cells; experiment: Phase II enzyme induction (quinone reductase); assay type: cell-based; details: for PHASE II INDUCTION CD (concentration to double the measured specific activity): quinone reductase, murine Hepac1c7 cells
Source text: Several plant-derived compounds with anticancer and chemopreventive activities also show the ability to induce phase II detoxifying enzymes, including quinone reductase.

VEGF mRNA = experiment: Production of VEGF mRNA in HaCaT keratinocytes (RNAse protection); assay type: cell-based, human; details: TPA 5 ng/ml, three hours, HaCaT cells
Description: HaCaT keratinocytes were grown in (DMEM) (JRH) supplemented with 5% FCS (Hyclone, Logan, UT) in 25 cm^2 flasks. […] TPA was added to a final concentration of 5 ng/ml and cells were incubated for three hours at 37° C. and harvested, and their RNA was extracted with guanidinium thiocyanate/phenol.
A plasmid containing the coding region of human vascular endothelial growth factor (VEGF) 121 was obtained from H. Welch (University of Freiburg, Germany), and used to generate P^32-labeled antisense riboprobe as per manufacturers protocols (Ambion, Austin, Tex.). RNAse protection assays were performed according to the method of Hod, Biotechniques 13:852-853 (1992). Protected fragments were separated on gels of 5% acrylamide, 8 M urea, 1× Tris-borate buffer, and quantified with a phosphorimager (Molecular Dynamics, Sunnyvale, Calif.). An 18S riboprobe was included in each sample to normalize for variations in loading and recovery of RNA.
HaCaT cells are derived from spontaneously transformed human keratinocytes.

[3] = tested on: Bovine capillary endothelial cells; experiment: Endothelial proliferation assay, primary endothelial cells; assay type: cell-based; details: 72 hours
Description: Bovine capillary endothelial cells were isolated according to the method of Folkman, et al., Proc. Nat. Acad. Sci. U.S.A. 76:5217-5221 (1979), and were plated at a concentration of 10,000 cells/well in gelatinized 24-well dishes. The primary endothelial cells were cultured in Dulbecco's modified Eagle's medium (DMEM) supplemented with 10% bovine serum and grown at 37° C. in 10% CO2. Twenty-four hours after plating, cells were treated with curcumin in the presence or absence of bFGF. After 72 hours of treatment, cells were counted using a Coulter counter. Cell counts for each condition were repeated in triplicate and in the presence or absence of 1 ng/ml bFGF. Endothelial cells were stimulated to proliferate in the presence of 1 ng/ml bFGF.

[4] = tested on: omithine decarboxylase induction and promotion of mouse skin; details: oral administration; Huang et al. 1995; cited from earlier work
[5] = tested on: human umbilical vein endothelial cells (HUVEC); details: independent of bFGF stimulation; Singh et al. 1996; cited from earlier work
induced tumors = details: oral administration, skin and colon chemical carcinogens; cited from earlier work
[6] = tested on: MSI (ATCC CCRL 2279) endothelial cells; experiment: Endothelial proliferation assay, SV40 large T antigen immortalized endothelial cells; assay type: cell-based, murine; details: 72-hour exposure
Description: Similarly, MSI (ATCC CCRL 2279) endothelial cells, which are a SV40 large T antigen immortalized murine endothelial cell line, were also plated at a concentration of 10,000 cells/well in nongelatinized 24-well dishes.

[7] = pellet with 80 ng bFGF plus compound

| SMILES | ANTI-ANGIOGENIC EFFECT Vessel Length [1] [mm.] | ANTI-ANGIOGENIC EFFECT Sector Size [1] [clock hours] | PHASE II INDUCTION CD (concentration to double the measured specific activity) [2] [µM] | other results |
| --- | --- | --- | --- | --- |
| O=C(/C=C/c1ccc(O)cc1)CC(=O)/C=C/c1ccc(O)cc1 [Bisdemethoxycurcumin, bisdemethoxycurcumin] | 0.88 | 1.7 | 11.0 | – |
| COc1cc(/C=C/C(=O)CC(=O)/C=C/c2ccc(O)c(OC)c2)ccc1O [Curcumin] | 0.59 | 1.17 | 7.3 | inhibition of TPA-caused increase in VEGF mRNA (VEGF mRNA; 10 μM curcumin): not inhibited; also recorded: lack of inhibition; sector size (in words) [1, 7]: significantly reduced; vessel length (in words) [1, 7]: significantly reduced; cell number (proliferation) after treatment ([3]; 10 μM, presence or absence of 1 ng/ml bFGF): steep decrease in cell number; cytotoxicity to endothelial cells ([3]; 0.5 to 10 μM): No evidence of cytotoxicity; inhibition of phorbol ester-stimulated ornithine decarboxylase induction and promotion of DMBA-initiated mouse skin [4]: able to inhibit; in vitro proliferation of HUVEC [5]: inhibits; incidence and size of induced tumors compared with control mice (induced tumors): decreased incidence and size; growth of endothelial cells immortalized by SV40 large T antigen [6]: able to inhibit the growth |
| COc1cc(/C=C/C(O)=C/C(=O)/C=C/c2ccc(O)cc2)ccc1O [Demethoxycurcumin, demethoxycurcumin] | 0.26 | 0.71 | 9.0 | – |
| CCCCCCCCCCCCCC(=O)O[C@@H]1[C@@H](C)[C@@]2(O)[C@@H](C=C(CO)C[C@]3(O)C(=O)C(C)=C[C@@H]23)[C@@H]2C(C)(C)[C@]12OC(C)=O [TPA, 12-O-tetradecanoylphorbol-13-acetate, reference compound] | – | – | – | increase in VEGF mRNA (VEGF mRNA): 2.5 fold |
| O=C1C(c2ccccc2)=C(c2ccccc2)C(c2ccccc2)=C1c1ccccc1 [TPCPD, tetraphenylcyclopentadienone, reference compound] | 1.16 | 3.72 | 4.8 | bFGF-induced corneal neovascularization (in words) [1, 7]: no anti-angiogenic activity; also recorded: no difference in neovascularization; bFGF-induced corneal neovascularization (in words) ([1]; pellet with 80 ng bFGF plus compound, listed as tetraphenylcyclopentadienone (TPCPD)): no effect |
| COc1cc(CCC(=O)CC(=O)CCc2ccc(O)c(OC)c2)ccc1O [Tetrahydrocurcumin, tetrahydrocurcumin] | 0.74 | 2.43 | >25 | induction of quinone reductase activity ([2]; highest concentration tested, 25 μM): 1.6 fold |
